Patent publication US10550120B2, “Indole alkaloid compound having immune checkpoint inhibitory action” (TOHOKU UNIVERSITY, priority 2016, dated 2020)

Experiments:
IL-10 = assay: Measurement of human IL-10 amount in culture supernatant of MT2 cells with ELISA kit (Test 1); type: cell-based; conditions: 48±2 hours
Method: (§1) MT2 cells from human adult T-cell leukemia were used. Leukemia cells of human adult T-cell leukemia (ATL) express CD4 and CD25 molecules on the cell surface and are considered to be derived from Treg (Chen S. et al., International Immunology 18:269-277 (2005)). MT2 cells were used in experiments as models of Treg since the cells are CD4 positive, CD25 positive, and FOXP3 positive celles derived from ATL.
(§2) The example compounds (compounds 1-17) of the present invention were dissolved in dimethylsulfoxide (DMSO) to prepare each 50 mmol/L solution, which was preserved at −80° C.
The amount of IL-10 production in the control and the example compounds was measured to evaluate the inhibitory effect on IL-10 production of the example compounds of the present invention.
(1) MT2 cells are suspended in RPMI1640 medium (hereinafter referred to as “the medium”) supplemented with 10% fetal calf serum (FCS) and 1% penicillin/streptomycin (P/S) to give 3×10^5 cells/mL suspension, and 1 mL of the suspension was added to each well of a 24-well plate. […] The cell cultures were incubated 48±2 hours in a CO2 incubator (under a condition of 37° C., 5 CO2). DMSO was diluted 50-fold with the medium, and 20 μL of the diluent was added to the well to make a control of compounds 1-7. In addition, DMSO was diluted 50-fold with the medium, and 25.0 μL of the diluent was added to the well to make a control of compounds 8-17.
(2) A piece of the cell culture was sampled to count cells with a cell counter (BIO RAD TC-20). The cell culture was centrifuged at 300×g for 5 minutes and the supernatant was collected as a sample for IL-10 measurement. When not measured within a day, it was preserved in a freezer at −80° C.
(3) Human IL-10 ELISA kit II (BD OptEIA) was used on the measurement. The kit contains wells treated with anti-IL-10 antibody (8 wells/strip), Standard/Sample diluent, vials comprising freeze-dried IL-10 Standard (1280 pg/vial), ELISA diluent, 20× Wash Buffer, Detection antibody, Enzyme Concentrate, TMB One Step Substrate Reagent, Stop Solution, and cover sheets.
(4) To a vial containing IL-10 Standard was added […] Standard/Sample diluent, and the vial was stood at room temperature for 15 minutes to be dissolved (Standard sample stock solution 1L-10 concentration: 500 pg/mL).
(5) Standard samples in each concentration for making a standard curve were prepared as follows. Firstly, to 300 μL of the medium was added 300 μL of the standard sample stock solution, and the mixture was mixed with a Voltex mixer (250 pg/mL). Next, 300 μL of the standard sample of 250 pg/mL was added to 300 μL of the medium and the mixture was mixed with a Voltex mixer (125 pg/mL). The same procedures were successively repeated to prepare standard solutions of 62.5, 31.25, 15.625, and 7.8125 pg/mL. As 0 pg/mL standard solution, the medium was used.
(6) A kit containing wells treated with anti-IL-10 antibody (8 wells/strip) was warmed to room temperature and 50 μL of ELISA diluent in the kit was added into each well.
(7) To each well containing ELISA diluent, 100 μL of the standard samples of each concentration and each test sample (diluded 50-100 fold with medium) were added.
(8) After the wells were sealed with a cover sheet and gently tapped, they were left at room temperature for 2 hours.
(9) 20× Wash Buffer was diluted 20-fold with water to prepare 1× Wash Buffer.
(10) After the reaction was done for 2 hours, the solutions in each well were aspirated and washed 5 times with 300 μL of 1× Wash Buffer.
(11) After Enzyme Concentrate (4 μL per 8 wells) was added to Detection antibody (1 ml per 8 wells), the solution was mixed by a Vortex mixer and then a necessary amount of Working Detector was prepared.
(12) 100 μL of Working Detector was added to each well, covered with a cover sheet, and the wells were left at room temperature for an hour.
(13) After the reaction was done for an hour, the solutions in wells were aspirated and washed 7 times with 300 μL of 1× Wash Buffer. […]

CTLA-4 = assay: Intracellular staining of MT2 cells with fluorescence-labeled anti-CTLA-4 antibody and measurement by flow cytometry; type: cell-based, human; conditions: 48±2 hours; for Peak MFI of CTLA-4: isotype IgG2a subtracted, average of n=3
Method: as §1, §2
(1) MT2 cells were suspended in RPMI1640 medium (hereinafter referred to as “the medium”) supplemented with 10% fetal calf serum (FCS) and 1° penicillin/streptomycin (P/S) to give 3×10^5 cells/mL suspension and 3 mL of the suspension was added to each well of a 6-well plate. To each well were added 0.6 or 1.2 μL of the test compound solutions (compounds 1, 2, and 4), 0.75 or 1.5 μL of the test compound solution (compound 9), and 1.5 μL of the test compound solutions (compounds 8 and 10-17), and the cell cultures were incubated in a CO2 gas incubator (under 37° C., 5% CO2) and cultured for 48±2 hours. As a control of compound 1, 2 and 4, only 1.2 μL of DMSO was added to the well. In addition, as a control of compound 8-17, only 1.5 μL of DMSO was added to the well.
(2) A piece of the cell culture was sampled to count cells with a cell counter (BIO RAD TC-20). The cell culture was centrifuged at 300×g for 5 min, and the supernatant was removed. The residue was suspended in phosphate buffered saline (supplemented with 1% bovine serum albumin (BSA), without calcium and magnesium) (1% BSA/PBS) to adjust the concentration of cells to 5-10×10^6 cells/mL.
(3) To 5 ml tube, each 50 μL of the cell suspension was added.
(4) Foxp3/Transcription Factor Fix/Perm Concentrate (4×) (Cat. No. TNB-1020-L050) (Solution A) in FOXP3/Transcription Factor Staining kit (TONBO biosciences) was diluted with Foxp3/Transcription Factor Fix/Perm Diluent (1×) (Cat. No. TNB-1022-L160) (for dilution of Solution A) to prepare 1× Solution A.
(5) 1 mL of 1× Solution A was added to each tube and mixed by gentle pipetting. Subsequently, it was left at room temperature for 30 min, centrifuged at 300×g for […], and the supernatant was discarded.
(6) Flow Cytometry Perm Buffer (10×) (Cat. No. TNB-1213-L150) (Solution B) in the kit was diluted 10-fold with water to prepare 1× Solution B.
(7) 2 mL of 1× Solution B was added to the tube and centrifuged at 300×g for 5 min. The supernatant was discarded. 2 μL of 2% normal mouse serum/PBS was added to the tube and the tube was gently pipetted. Subsequently, it was left at room temperature for 15 min.
(8) In the CTLA-4 measurement, 20 μL of anti-CTLA-4 antibody (BECKMAN COULTER, CD152-PE clone BN13I M2282) or mouse IgG2a (BECKMAN COULTER, IgG2a (Mouse)-PE A09142) for the control was added to the tube and the tube was gently stirred. Subsequently, it was left in the dark at room temperature for 30 min, and 2 mL of the 1× Solution B was added thereto, the mixture was centrifuged at 300×g for 5 min, and the supernatant was discarded. 2 mL of the 1× Solution B was added to the tube again, the mixture was centrifuged at 300×g for 5 min, and the supernatant was discarded.
(9) Within 2 hours after the solution in the tube was suspended in 0.5 mL of 1% BSA/PBS, and the fluorescence at 577 nm was measured with 488 nm excitation with a flow cytometer (Sony: Cell Sorter SH800). The results were analyzed with software, FlowJo (Tree Star Inc.). The mean peak fluorescence intensity (MFI) of CTLA-4 and mean peak fluorescence intensity of isotype control IgG2a were calculated from histgrams of the measured fluorescence intensity and number of cells, and mean fluorescence intensity of IgG2a was subtracted from that of CTLA-4. Experiments were conducted in n=3, and the average values were shown.

[1] = Homo sapiens, 48 h, 12.5 μmol/L, DMSO control = 100%, read-out: % against control (IL-10 production)
[2] = Homo sapiens, 48 h, 25.0 μmol/L, DMSO control = 100%, read-out: % against control (IL-10 production)
[3] = Homo sapiens, 48 h, 25.0 μmol/L, DMSO control = 100%, read-out: % against control (CTLA-4 expression)

## COC(=O)C1=CN2CCc3c([nH]c4c(F)cccc34)[C@@H]2[C@@H]2[C@@H](C)[C@@H](O)C[C@H]12 [Compound 17]
IL-10; 12.5 μmol/L
  IL-10 (ng/10^6 cells) ± standard deviate (n = 3): 7.0 ± 0.2 ng/10^6 cells
IL-10; 25.0 μmol/L
  IL-10 (ng/10^6 cells) ± standard deviate (n = 3): 6.0 ± 0.2 ng/10^6 cells
IL-10; [1]
  activity at 12.5 µM: 64.2%
IL-10; [2]
  activity at 25 µM: 54.2%
CTLA-4; 25.0 μmol/L
  Peak MFI of CTLA-4: 339
CTLA-4; [3]
  activity at 25 µM: 45%

## COC(=O)C1=CN2CCc3c([nH]c4ccccc34)[C@H]2[C@@H]2C(CO)=CC[C@H]12 [Compound 4]
IL-10; 10 μmol/L
  IL-10 (ng/10^6 cells) ± standard deviate (n = 3): 8.0 ± 0.2 ng/10^6 cells
IL-10; 20 μmol/L
  IL-10 (ng/10^6 cells) ± standard deviate (n = 3): 4.3 ± 0.5 ng/10^6 cells
IL-10; Homo sapiens, 48 h, 10 μmol/L, DMSO control = 100%, read-out: % against control (IL-10 production)
  activity at 10 µM: 42.9%
IL-10; Homo sapiens, 48 h, 20 μmol/L, DMSO control = 100%, read-out: % against control (IL-10 production)
  activity at 20 µM: 23%
CTLA-4; 10 μmol/L
  Peak MFI of CTLA-4: 796.0
CTLA-4; 20 μmol/L
  Peak MFI of CTLA-4: 621.0
CTLA-4; Homo sapiens, 48 h, 10 μmol/L, DMSO control = 100%, read-out: % against control (CTLA-4 expression)
  activity at 10 µM: 93.4%
CTLA-4; Homo sapiens, 48 h, 20 μmol/L, DMSO control = 100%, read-out: % against control (CTLA-4 expression)
  activity at 20 µM: 72.9%

## COC(=O)C1=CN2CCc3c([nH]c4ccc(OCc5ccccc5)cc34)[C@@H]2[C@@H]2[C@@H](C)[C@@H](O)C[C@H]12 [Compound 15]
IL-10; 12.5 μmol/L
  IL-10 (ng/10^6 cells) ± standard deviate (n = 3): 6.5 ± 0.2 ng/10^6 cells
IL-10; 25.0 μmol/L
  IL-10 (ng/10^6 cells) ± standard deviate (n = 3): 0.6 ± 0.4 ng/10^6 cells
IL-10; [1]
  activity at 12.5 µM: 59.3%
IL-10; [2]
  activity at 25 µM: 5.1%
CTLA-4; 25.0 μmol/L
  Peak MFI of CTLA-4: 284
CTLA-4; [3]
  activity at 25 µM: 37.7%

## COC(=O)C1=CN2CCc3c([nH]c4ccc(C)cc34)[C@@H]2[C@@H]2[C@@H](C)[C@@H](O)C[C@H]12 [Compound 14]
IL-10; 12.5 μmol/L
  IL-10 (ng/10^6 cells) ± standard deviate (n = 3): 7.4 ± 0.3 ng/10^6 cells
IL-10; 25.0 μmol/L
  IL-10 (ng/10^6 cells) ± standard deviate (n = 3): 4.3 ± 1.0 ng/10^6 cells
IL-10; [1]
  activity at 12.5 µM: 67.7%
IL-10; [2]
  activity at 25 µM: 39.2%
CTLA-4; 25.0 μmol/L
  Peak MFI of CTLA-4: 450
CTLA-4; [3]
  activity at 25 µM: 53%
